This passage reports AC50, EC50 and IC50 results from ChEMBL document CHEMBL1201862, “PubChem BioAssay data set” (2004).

Experiment [1] has as its system H4. As to the kind of experiment: Inhibitors of Prion Protein 5' UTR mRNA Measured in Cell-Based System Using Plate Reader - 2078-01_Inhibitor_Dose_DryPowder_Activity. [Related pubchem assays (depositor defined):AID488894]. To be noted: Homo sapiens. It counts as functional.
Experiment [2] relates to H4. The experiment can be described thus: inhibitors of control reporter signal in H4 cells – cell-based, plate reader, dry powder samples, counter-screen for prion reporter project, dose response (AID 540255). It counts as functional. Particulars: Homo sapiens. (The purpose of a counterscreen is to sort out artefacts and off-target activity.)
The next experiment has as its system Escherichia coli. As to the kind of experiment: microbe, parasite or virus in culture.
Experiment [3] deals with 5-hydroxytryptamine receptor 5A (Homo sapiens, UniProt P47898). The experiment can be described thus: Counterscreen for agonists of OPRM1-OPRD1 heterodimerization: luminescence-based cell-based high throughput dose response assay to identify agonists of 5-hydroxytryptamine (serotonin) 5A receptor (HTR5A). [Related pubchem assays (depositor defined):AID504326, AID504355, AID504692, AID504904, AID504905]. It counts as functional.
5-hydroxytryptamine receptor 5A, sequence (P47898 whole entry): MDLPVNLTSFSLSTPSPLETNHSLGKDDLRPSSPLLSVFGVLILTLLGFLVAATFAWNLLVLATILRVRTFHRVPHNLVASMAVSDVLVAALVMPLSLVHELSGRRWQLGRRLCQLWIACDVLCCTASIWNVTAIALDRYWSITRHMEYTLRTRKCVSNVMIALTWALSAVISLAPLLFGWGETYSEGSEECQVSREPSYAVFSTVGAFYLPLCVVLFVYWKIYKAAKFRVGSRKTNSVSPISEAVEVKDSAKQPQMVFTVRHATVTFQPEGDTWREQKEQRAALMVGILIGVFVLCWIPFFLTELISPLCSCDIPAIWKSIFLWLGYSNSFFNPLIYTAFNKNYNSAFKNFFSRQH

For experiment [4], the target named is Beta-adrenergic receptor kinase 1 (Homo sapiens, UniProt P25098). As to the kind of experiment: blockers of aptamer binding to GRK2 – biochemical, flow cytometry beads, FAM-aptamer, powder set 1, dose response (AID 588720).
Beta-adrenergic receptor kinase 1, sequence (P25098 whole entry): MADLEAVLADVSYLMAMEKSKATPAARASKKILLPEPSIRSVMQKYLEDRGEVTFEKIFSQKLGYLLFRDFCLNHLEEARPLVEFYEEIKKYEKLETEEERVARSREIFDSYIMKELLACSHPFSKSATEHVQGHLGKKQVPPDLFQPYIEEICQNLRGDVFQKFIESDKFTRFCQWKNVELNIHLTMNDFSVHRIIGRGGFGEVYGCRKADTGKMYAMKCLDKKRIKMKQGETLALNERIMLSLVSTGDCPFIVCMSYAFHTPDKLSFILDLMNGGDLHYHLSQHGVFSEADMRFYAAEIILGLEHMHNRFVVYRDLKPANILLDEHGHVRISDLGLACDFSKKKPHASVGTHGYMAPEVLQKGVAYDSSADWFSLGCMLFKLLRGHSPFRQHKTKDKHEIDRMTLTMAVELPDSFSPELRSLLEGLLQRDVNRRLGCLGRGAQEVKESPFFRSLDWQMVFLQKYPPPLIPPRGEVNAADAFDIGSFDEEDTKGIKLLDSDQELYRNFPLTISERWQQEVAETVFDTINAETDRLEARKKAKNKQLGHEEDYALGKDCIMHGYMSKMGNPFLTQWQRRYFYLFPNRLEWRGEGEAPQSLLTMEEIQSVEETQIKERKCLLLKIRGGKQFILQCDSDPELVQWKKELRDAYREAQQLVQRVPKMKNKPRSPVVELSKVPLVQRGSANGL
The target in experiment [5] is Voltage-gated inwardly rectifying potassium channel KCNH2 (Homo sapiens, UniProt Q12809). Particulars: Potency.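 Also: confirmatory quantitative high-throughput screen measuring inhibition of hERG channel activity.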
Voltage-gated inwardly rectifying potassium channel KCNH2, sequence (Q12809 whole entry): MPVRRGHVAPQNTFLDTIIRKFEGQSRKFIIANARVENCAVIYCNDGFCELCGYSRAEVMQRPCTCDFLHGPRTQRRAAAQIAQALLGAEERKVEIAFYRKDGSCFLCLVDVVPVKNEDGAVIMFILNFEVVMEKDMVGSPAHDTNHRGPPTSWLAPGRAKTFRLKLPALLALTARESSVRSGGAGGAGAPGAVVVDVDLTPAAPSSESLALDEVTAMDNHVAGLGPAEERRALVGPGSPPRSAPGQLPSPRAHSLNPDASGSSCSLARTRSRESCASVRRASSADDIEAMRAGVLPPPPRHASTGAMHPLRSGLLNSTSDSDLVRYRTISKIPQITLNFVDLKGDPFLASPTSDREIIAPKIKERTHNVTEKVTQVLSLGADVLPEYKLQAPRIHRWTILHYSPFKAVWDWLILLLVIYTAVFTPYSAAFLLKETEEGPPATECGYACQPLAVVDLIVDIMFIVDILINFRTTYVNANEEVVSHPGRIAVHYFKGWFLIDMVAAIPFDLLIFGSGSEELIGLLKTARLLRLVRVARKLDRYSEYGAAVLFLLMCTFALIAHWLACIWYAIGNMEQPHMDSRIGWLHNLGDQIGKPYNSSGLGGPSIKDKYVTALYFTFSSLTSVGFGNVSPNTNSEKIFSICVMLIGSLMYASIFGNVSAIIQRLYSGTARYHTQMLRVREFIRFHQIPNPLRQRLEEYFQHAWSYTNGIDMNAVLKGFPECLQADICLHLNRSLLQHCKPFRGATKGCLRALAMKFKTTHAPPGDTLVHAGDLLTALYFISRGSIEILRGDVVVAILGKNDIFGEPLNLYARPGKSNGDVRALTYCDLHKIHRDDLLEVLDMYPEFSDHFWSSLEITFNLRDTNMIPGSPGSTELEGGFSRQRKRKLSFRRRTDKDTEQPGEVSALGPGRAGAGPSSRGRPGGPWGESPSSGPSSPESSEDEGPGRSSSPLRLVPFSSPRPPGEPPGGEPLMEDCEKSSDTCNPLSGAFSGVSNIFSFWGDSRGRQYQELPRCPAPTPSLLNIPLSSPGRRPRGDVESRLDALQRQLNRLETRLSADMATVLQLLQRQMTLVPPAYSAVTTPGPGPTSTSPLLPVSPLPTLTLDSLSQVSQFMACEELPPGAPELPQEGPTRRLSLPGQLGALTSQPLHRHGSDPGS
Experiment [6] deals with Ras and Rab interactor 1/Tyrosine-protein kinase ABL1 (Homo sapiens, UniProt P00519+Q13671). It counts as functional.
The target in experiment [7] is Dual specificity tyrosine-phosphorylation-regulated kinase 1A (Rattus norvegicus, UniProt Q63470). The experiment is classed as biochemical, Homo sapiens.
Experiment [8] deals with Induced myeloid leukemia cell differentiation protein Mcl-1 (Homo sapiens, UniProt Q07820). The experiment is classed as functional.
Induced myeloid leukemia cell differentiation protein Mcl-1, sequence (Q07820 whole entry): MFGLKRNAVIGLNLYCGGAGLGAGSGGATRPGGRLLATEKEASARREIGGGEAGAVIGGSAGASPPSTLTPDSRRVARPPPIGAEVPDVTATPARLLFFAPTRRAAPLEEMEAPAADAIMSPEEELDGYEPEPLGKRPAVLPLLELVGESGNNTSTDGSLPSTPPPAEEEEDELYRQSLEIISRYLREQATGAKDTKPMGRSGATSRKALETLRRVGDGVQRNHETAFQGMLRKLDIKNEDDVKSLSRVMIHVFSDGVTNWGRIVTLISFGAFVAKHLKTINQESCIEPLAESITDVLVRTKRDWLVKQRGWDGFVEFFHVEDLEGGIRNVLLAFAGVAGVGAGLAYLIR
In experiment [9] the target is T1, SUMO-activating enzyme (Homo sapiens, UniProt Q9UBT2). As to the kind of experiment: blockers of SAE1/SAE2–UBC9 SUMO transfer – biochemical, HTRF, uHTS, primary screen (AID 2006). The experiment is classed as protein-complex assay.
T1 sequence (Q9UBE0 whole entry): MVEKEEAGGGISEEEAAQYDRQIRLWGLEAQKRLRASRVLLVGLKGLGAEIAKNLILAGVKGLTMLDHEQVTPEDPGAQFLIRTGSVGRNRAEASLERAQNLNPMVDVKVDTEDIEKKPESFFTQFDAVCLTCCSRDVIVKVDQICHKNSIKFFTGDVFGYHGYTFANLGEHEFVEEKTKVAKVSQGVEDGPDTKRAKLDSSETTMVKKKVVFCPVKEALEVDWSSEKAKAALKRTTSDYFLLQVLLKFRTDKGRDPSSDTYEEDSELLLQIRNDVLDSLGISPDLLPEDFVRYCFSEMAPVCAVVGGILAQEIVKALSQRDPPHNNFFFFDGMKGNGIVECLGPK
T1 sequence (Q9UBT2 whole entry): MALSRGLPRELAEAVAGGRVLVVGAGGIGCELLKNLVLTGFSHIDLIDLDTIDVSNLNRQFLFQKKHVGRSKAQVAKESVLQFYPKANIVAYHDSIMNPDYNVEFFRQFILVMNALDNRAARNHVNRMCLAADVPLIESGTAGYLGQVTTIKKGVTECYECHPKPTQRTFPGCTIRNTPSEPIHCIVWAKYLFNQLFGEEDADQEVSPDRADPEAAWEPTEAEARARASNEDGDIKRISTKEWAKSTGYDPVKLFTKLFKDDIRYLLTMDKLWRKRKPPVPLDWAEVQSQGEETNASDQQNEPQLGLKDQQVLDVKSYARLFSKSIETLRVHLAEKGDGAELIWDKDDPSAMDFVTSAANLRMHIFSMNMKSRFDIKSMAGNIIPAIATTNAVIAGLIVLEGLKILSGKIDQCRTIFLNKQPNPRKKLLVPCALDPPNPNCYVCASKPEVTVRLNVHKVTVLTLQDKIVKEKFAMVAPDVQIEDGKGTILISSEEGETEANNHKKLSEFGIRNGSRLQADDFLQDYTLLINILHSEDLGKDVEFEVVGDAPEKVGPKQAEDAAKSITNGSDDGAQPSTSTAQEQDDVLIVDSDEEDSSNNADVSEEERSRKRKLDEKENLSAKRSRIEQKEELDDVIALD
The target of experiment [10] is T1, SUMO-activating enzyme. The experiment can be described thus: blockers of UBC9-mediated SUMO conjugation – biochemical, AlphaScreen, SUMOylation inhibitor project, confirmation (AID 2018). It counts as functional.
For another experiment, the target named is Large T antigen (Simian virus 40, UniProt P03070). The experiment is classed as functional, Betapolyomavirus macacae.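 Also: Confirmatory-stage PubChem screen for compounds that inhibit SV40 T antigen.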
Large T antigen, sequence (P03070 whole entry): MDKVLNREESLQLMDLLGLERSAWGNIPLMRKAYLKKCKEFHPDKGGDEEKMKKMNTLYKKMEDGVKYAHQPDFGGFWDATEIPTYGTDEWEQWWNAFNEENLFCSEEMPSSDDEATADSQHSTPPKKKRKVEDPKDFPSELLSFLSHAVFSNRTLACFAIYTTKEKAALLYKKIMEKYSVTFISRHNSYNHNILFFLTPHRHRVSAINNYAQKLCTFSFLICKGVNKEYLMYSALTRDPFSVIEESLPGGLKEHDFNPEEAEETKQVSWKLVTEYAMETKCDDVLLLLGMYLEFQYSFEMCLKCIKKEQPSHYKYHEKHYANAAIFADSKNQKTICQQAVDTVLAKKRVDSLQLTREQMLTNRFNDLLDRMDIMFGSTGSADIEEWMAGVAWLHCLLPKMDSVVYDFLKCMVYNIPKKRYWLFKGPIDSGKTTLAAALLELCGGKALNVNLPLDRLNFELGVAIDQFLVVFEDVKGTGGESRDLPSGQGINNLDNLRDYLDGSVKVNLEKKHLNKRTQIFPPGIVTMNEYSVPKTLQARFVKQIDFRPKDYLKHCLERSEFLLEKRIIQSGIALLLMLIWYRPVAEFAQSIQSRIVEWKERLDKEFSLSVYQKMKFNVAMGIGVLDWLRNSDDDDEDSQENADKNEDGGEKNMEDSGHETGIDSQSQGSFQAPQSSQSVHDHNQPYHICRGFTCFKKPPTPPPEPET
Experiment [11] concerns the target Cyclin-dependent kinase 5/CDK5 activator 1 (Homo sapiens, UniProt Q00535). The experiment can be described thus: blockade of human CDK5 activity – biochemical, cherry-picked samples, set 2, dose response (AID 504545).

SMILES strings stand for the structures. The source made the active and inactive calls.

For orientation: AC50 means the concentration at which the activity in the assay is half-maximal. What is called EC50 is the concentration that produces a half-maximal response. For orientation: IC50 means the concentration needed to halve the response being measured.

Cyclin-dependent kinase 5/CDK5 activator 1, sequence (Q00535 whole entry): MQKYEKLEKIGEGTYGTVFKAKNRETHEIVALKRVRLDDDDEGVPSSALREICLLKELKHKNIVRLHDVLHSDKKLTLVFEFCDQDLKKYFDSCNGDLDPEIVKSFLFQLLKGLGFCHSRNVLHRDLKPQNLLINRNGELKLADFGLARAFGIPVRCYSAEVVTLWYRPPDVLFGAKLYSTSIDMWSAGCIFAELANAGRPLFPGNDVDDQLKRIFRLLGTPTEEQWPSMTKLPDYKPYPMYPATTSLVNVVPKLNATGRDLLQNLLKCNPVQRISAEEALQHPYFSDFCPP
Cyclin-dependent kinase 5/CDK5 activator 1, sequence (Q15078 whole entry, further chain): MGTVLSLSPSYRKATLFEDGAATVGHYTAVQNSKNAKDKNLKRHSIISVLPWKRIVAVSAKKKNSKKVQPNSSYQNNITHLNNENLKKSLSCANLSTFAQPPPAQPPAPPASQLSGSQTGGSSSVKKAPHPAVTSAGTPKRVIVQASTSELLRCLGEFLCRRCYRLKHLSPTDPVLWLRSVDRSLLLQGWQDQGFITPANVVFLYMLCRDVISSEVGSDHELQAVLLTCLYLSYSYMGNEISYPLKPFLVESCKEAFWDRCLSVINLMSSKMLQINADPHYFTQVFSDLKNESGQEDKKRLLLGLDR

Take `CCCCc1ccc(-n2nc3cc(Cl)c(C(=O)NC(C)(C)C)cc3n2)cc1`: the values for the AC50 with H4 [1] and in the experiment with H4 [2] were 0.032 µM (active) and < 0.02 µM (active), respectively.
In the case of `CCOC(=O)c1ccc(NC(=O)c2cn(CCC#N)nc2-c2ccc3c(c2)OCCO3)cc1`, the AC50 in the experiment on Escherichia coli is 30.3 µM (active).
With `C=CCN1C[C@@H](C)N(C(c2ccc(C(=O)N(CC)CC)cc2)c2cccc(OC)c2)C[C@@H]1C` (stereo partly drawn), the EC50 in experiment [3] is > 92.5 µM (inactive).
As to `CCOc1ccc(CCNC(=O)CCS(=O)(=O)c2ccc(Br)cc2)cc1OCC`, in experiment [4], the EC50 was 17.7 µM (inactive).
For the compound `C[N+]1(C)C2CCC1CC(OC(=O)c1c[nH]c3ccccc13)C2` (stereo not drawn), in experiment [5], the concentration at half-maximal activity (AC50) is 25.1 µM (inconclusive).
For the compound `COc1cc2c(ccc3cc(OC)c(OC)c(O)c32)cc1O`, the IC50 in experiment [6] is 35.2 µM (inactive); in experiment [8], 1.95 µM (active); at SUMO-activating enzyme [9] it was 13.9 µM (active); at SUMO-activating enzyme [10], 2.89 µM (active); on Large T antigen, 9.72 µM (active). In addition, the values for the AC50 in experiment [7] and in experiment [11] were 0.406 µM (active) and 2.19 µM (active), respectively.
